According to paper PMC4503722, “Novel Phenotypic Outcomes Identified for a Public Collection of Approved Drugs from a Publicly Accessible Panel of Assays” (PLoS ONE, 2015):
Where two headings read alike, the source gives them in different places.

What was measured:
HeLa cells = assay: cells; type: cell-based;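 for Hela CellCycMod PI 4N summarized IC50: value tracks stimulation of 4N DNA content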
SNU-C1 = assay: cells; type: cell-based
HCT116 = assay: cells; type: cell-based
HT-29 = assay: cells; type: cell-based
[1] = system: endothelial tube formation in co-cultures of ECFCs and ADSCs treated with VEGF; assay: cells; type: cell-based, human
[2] = system: HCT116 cells treated with a GSK3β inhibitor; assay: cells; type: cell-based; conditions: for IC50/EC50, GSK3b inh pretreated_Viability ATP HCT116 (assay number 26): GSK3b inh pretreated
[3] = system: ECFC/ADSC co-culture cell nuclei number
SW480 = assay: cells; type: cell-based
Colo320 = assay: cells; type: cell-based
RKO = assay: cells; type: cell-based
DLD-1 = assay: cells; type: cell-based
[4] = assay number 26, GSK3b inhibitor pretreated
[5] = assay number 30, concentration response
[6] = assay number 25, basal, concentration response
[7] = assay number 28, concentration response
[8] = assay number 26, GSK3b inhibitor pretreated, concentration response
[9] = assay number 24, concentration response
[10] = assay number 27, concentration response
[11] = assay number 29, concentration response
[12] = assay number 23, concentration response

Compound	IC50/EC50, Basal_Viability ATP SNU-C1 (assay number 30) (SNU-C1; basal) [µM]	IC50/EC50, Basal_Viability ATP HCT116 (assay number 25) (HCT116; basal) [µM]	IC50/EC50, Basal_Viability ATP HT-29 (assay number 28) (HT-29; basal) [µM]	IC50/EC50, VEGF_ADSC\ECFC Angio CD31 TubeArea (assay number 2) [1] [µM]	IC50/EC50, GSK3b inh pretreated_Viability ATP HCT116 (assay number 26) [2] [µM]	IC50/EC50, VEGF_ADSC\ECFC Angio Hoechst NucArea (assay number 3) [3] [µM]	IC50/EC50, Basal_Viability ATP SW480 (assay number 24) (SW480; basal) [µM]	IC50/EC50, Basal_Viability ATP Colo 320 (assay number 27) (Colo320; basal) [µM]	IC50/EC50, Basal_Viability ATP RKO (assay number 29) (RKO; basal) [µM]	IC50/EC50, Basal_Viability ATP DLD-1 (assay number 23) (DLD-1; basal) [µM]	VEGF_ADSC\ECFC Angio CD31 TubeArea IC50/EC50 [1] [µM]	VEGF_ADSC\ECFC Angio Hoechst NucArea IC50/EC50 [3] [µM]	Basal_Viability ATP SNU-C1 IC50/EC50 (SNU-C1; [5]) [µM]	Basal_Viability ATP HCT116 IC50/EC50 (HCT116; [6]) [µM]	Basal_Viability ATP HT-29 IC50/EC50 (HT-29; [7]) [µM]	GSK3b inh pretreated_Viability ATP HCT116 IC50/EC50 [2, 8] [µM]	Basal_Viability ATP SW480 IC50/EC50 (SW480; [9]) [µM]	Basal_Viability ATP Colo 320 IC50/EC50 (Colo320; [10]) [µM]	Basal_Viability ATP RKO IC50/EC50 (RKO; [11]) [µM]	Basal_Viability ATP DLD-1 IC50/EC50 (DLD-1; [12]) [µM]	further results
Cc1cc(N)c2ccccc2[n+]1CCCCCCCCCC[n+]1c(C)cc(N)c2ccccc21 [NCGC00015339-07]	1.2926	> 20	> 20	> 10	> 20	> 10	3.8338	15.8701	2.4541	5.7172	–	–	–	–	–	–	–	–	–	–	IC50/EC50, Hela CellCycMod PI 2N (assay number 14) (HeLa cells; 2N): > 10 µM; IC50/EC50, Hela CellCycMod PI 4N (assay number 16) (HeLa cells; 4N): > 10 µM; IC50/EC50, Hela CellCycMod PI Cell Number (assay number 18) (HeLa cells): > 10 µM; IC50/EC50, Hela CellCycMod PI MI (assay number 17) (HeLa cells; MI): > 10 µM; IC50/EC50, Hela CellCycMod PI S Phase (assay number 15) (HeLa cells): > 10 µM
O=C1C2CC=CCC2C(=O)N1SC(Cl)(Cl)Cl (stereo not shown) [NCGC00091034-10]	–	–	–	–	–	–	–	–	–	–	–	–	–	–	–	–	–	–	–	–	IC50 (HeLa cells; assay number 14, 2N, read-out: Hela CellCycMod PI 2N summarized IC50): > 10 µM; IC50 (HeLa cells; assay number 15, S phase, read-out: Hela CellCycMod PI S Phase summarized IC50): > 10 µM; IC50 (HeLa cells; assay number 16, 4N, read-out: Hela CellCycMod PI 4N summarized IC50): > 10 µM; IC50 (HeLa cells; assay number 17, MI, read-out: Hela CellCycMod PI MI summarized IC50): 6.14 µM; IC50 (HeLa cells; assay number 18, cell number, read-out: Hela CellCycMod PI Cell Number summarized IC50): 1.79 µM; IC50 (SNU-C1; assay number 30, basal, read-out: Basal_Viability ATP SNU-C1 summarized IC50): 0.903 µM; IC50 (HCT116; assay number 25, basal, read-out: Basal_Viability ATP HCT116 summarized IC50): 1.76 µM; IC50 (HT-29; assay number 28, basal, read-out: Basal_Viability ATP HT-29 summarized IC50): 0.5 µM; IC50 ([1]; read-out: VEGF_ADSC\ECFC Angio CD31 TubeArea summarized IC50): > 10 µM; IC50 ([2]; assay number 26, GSK3b inhibitor pretreated, read-out: GSK3b inh pretreated_Viability ATP HCT116 summarized IC50): 2.21 µM; IC50 ([3]; read-out: VEGF_ADSC\ECFC Angio Hoechst NucArea summarized IC50): > 10 µM; IC50 (SW480; assay number 24, basal, read-out: Basal_Viability ATP SW480 summarized IC50): 0.0788 µM; IC50 (Colo320; assay number 27, basal, read-out: Basal_Viability ATP Colo 320 summarized IC50): 0.306 µM; IC50 (RKO; assay number 29, basal, read-out: Basal_Viability ATP RKO summarized IC50): 0.402 µM; IC50 (DLD-1; assay number 23, basal, read-out: Basal_Viability ATP DLD-1 summarized IC50): 0.348 µM
OC[C@H]1O[C@@H](n2cnc3c(=S)nc[nH]c32)[C@H](O)[C@@H]1O [NCGC00096122-05]	2.185	0.02858	0.1181	1.4206	0.5044	> 10	0.02867	1.064	0.01437	0.06302	–	–	–	–	–	–	–	–	–	–	IC50/EC50, Hela CellCycMod PI 2N (assay number 14) (HeLa cells; 2N): > 10 µM; IC50/EC50, Hela CellCycMod PI 4N (assay number 16) (HeLa cells; 4N): > 10 µM; IC50/EC50, Hela CellCycMod PI Cell Number (assay number 18) (HeLa cells): > 10 µM; IC50/EC50, Hela CellCycMod PI MI (assay number 17) (HeLa cells; MI): > 10 µM; IC50/EC50, Hela CellCycMod PI S Phase (assay number 15) (HeLa cells): > 10 µM
O=C(Nc1ccc(Br)cc1)c1cc(Br)cc(Br)c1O [NCGC00159476-09]	0.001	0.003	0.001	1.8138	0.001	> 10	0.001	0.003	0.003	0.001	–	–	–	–	–	–	–	–	–	–	IC50/EC50, Hela CellCycMod PI 2N (assay number 14) (HeLa cells; 2N): > 10 µM; IC50/EC50, Hela CellCycMod PI 4N (assay number 16) (HeLa cells; 4N): > 10 µM; IC50/EC50, Hela CellCycMod PI Cell Number (assay number 18) (HeLa cells): > 10 µM; IC50/EC50, Hela CellCycMod PI MI (assay number 17) (HeLa cells; MI): > 10 µM; IC50/EC50, Hela CellCycMod PI S Phase (assay number 15) (HeLa cells): > 10 µM
CC(C)=CCOc1ccc(/C=C/C(=O)c2ccc(OCC=C(C)C)cc2OCC(=O)O)cc1 [NCGC00159481-03]	–	–	–	–	–	–	–	–	–	–	> 10	> 10	–	–	–	–	–	–	–	–	Hela CellCycMod PI 2N IC50/EC50 (HeLa cells): > 10 µM; Hela CellCycMod PI 4N IC50/EC50 (HeLa cells): > 10 µM; Hela CellCycMod PI Cell Number IC50/EC50 (HeLa cells): > 10 µM; Hela CellCycMod PI MI IC50/EC50 (HeLa cells): > 10 µM; Hela CellCycMod PI S Phase IC50/EC50 (HeLa cells): > 10 µM; Basal_Viability ATP SNU-C1 IC50/EC50 (SNU-C1): 7.4428 µM; Basal_Viability ATP HCT116 IC50/EC50 (HCT116): > 6.667 µM; Basal_Viability ATP HT-29 IC50/EC50 (HT-29): 5.3973 µM; GSK3b inh pretreated_Viability ATP HCT116 IC50/EC50 [2]: 3.0351 µM; Basal_Viability ATP SW480 IC50/EC50 (SW480): 2.9193 µM; Basal_Viability ATP Colo 320 IC50/EC50 (Colo320): 1.5527 µM; Basal_Viability ATP RKO IC50/EC50 (RKO): 5.5335 µM; Basal_Viability ATP DLD-1 IC50/EC50 (DLD-1): 5.3614 µM
NC(=O)n1c(O)c(C(=O)c2cccs2)c2cc(Cl)ccc21 [NCGC00263542-01]	0.5375	2.309	5.6005	> 10	3.787	> 10	1.02	1.643	4.703	6.9467	–	–	–	–	–	–	–	–	–	–	–
C/C(=N\O)[C@@H](C)NCC(C)(C)CN[C@H](C)/C(C)=N/O [NCGC00319018-01]	–	–	–	–	–	–	–	–	–	–	> 10	> 10	–	–	–	–	–	–	–	–	Basal_Viability ATP SNU-C1 IC50/EC50 (SNU-C1; assay number 30, basal): > 20 µM; Basal_Viability ATP HCT116 IC50/EC50 (HCT116; assay number 25, basal): > 20 µM; Basal_Viability ATP HT-29 IC50/EC50 (HT-29; assay number 28, basal): > 20 µM; GSK3b inh pretreated_Viability ATP HCT116 IC50/EC50 [2, 4]: > 20 µM; Basal_Viability ATP SW480 IC50/EC50 (SW480; assay number 24, basal): > 20 µM; Basal_Viability ATP Colo 320 IC50/EC50 (Colo320; assay number 27, basal): > 20 µM; Basal_Viability ATP RKO IC50/EC50 (RKO; assay number 29, basal): > 20 µM; Basal_Viability ATP DLD-1 IC50/EC50 (DLD-1; assay number 23, basal): > 20 µM
CCCCC[C@@H](O)CC[C@H]1[C@@H]2Cc3cccc(OCC(=O)O)c3C[C@@H]2C[C@@H]1O [NCGC00319020-01]	–	–	–	–	–	–	–	–	–	–	> 10	> 10	–	–	–	–	–	–	–	–	Basal_Viability ATP SNU-C1 IC50/EC50 (SNU-C1; assay number 30, basal): > 20 µM; Basal_Viability ATP HCT116 IC50/EC50 (HCT116; assay number 25, basal): > 20 µM; Basal_Viability ATP HT-29 IC50/EC50 (HT-29; assay number 28, basal): > 20 µM; GSK3b inh pretreated_Viability ATP HCT116 IC50/EC50 [2, 4]: > 20 µM; Basal_Viability ATP SW480 IC50/EC50 (SW480; assay number 24, basal): > 20 µM; Basal_Viability ATP Colo 320 IC50/EC50 (Colo320; assay number 27, basal): > 20 µM; Basal_Viability ATP RKO IC50/EC50 (RKO; assay number 29, basal): > 20 µM; Basal_Viability ATP DLD-1 IC50/EC50 (DLD-1; assay number 23, basal): > 20 µM
CC=CC1C(C(=O)OCc2c(F)c(F)c(COC)c(F)c2F)C1(C)C (stereo not shown) [NCGC00319021-01]	–	–	–	–	–	–	–	–	–	–	> 10	> 10	> 20	> 20	> 20	> 20	> 20	> 20	> 20	> 20	–
COC(=O)CCCCC(CCSS/C(CCO)=C(\C)N(C=O)Cc1cnc(C)nc1N)SC(C)=O (stereo not shown) [NCGC00319022-01]	–	–	–	–	–	–	–	–	–	–	> 10	> 10	> 20	> 20	> 20	> 20	> 20	> 20	> 20	> 20	–
C=CC(C)(O)CCC=C(C)CCC=C(C)C (stereo not shown) [NCGC00344526-01]	–	–	–	–	–	–	–	–	–	–	> 10	> 10	> 20	> 20	> 20	> 20	> 20	10.2751	> 20	> 20	–
CC1(C)[C@H](C=C(Cl)Cl)[C@@H]1C(=O)OCc1c(F)c(F)cc(F)c1F [NCGC00344542-01]	–	–	–	–	–	–	–	–	–	–	> 10	> 10	> 20	> 20	> 20	> 20	> 20	> 20	> 20	> 20	–
